Assay results from US20240124410A1, “SMALL MOLECULES AND THEIR USE AS MALT1 INHIBITORS” (University of Pittsburgh - Of the Commonwealth System of …, priority 2021, published 2024).

Target: T1, BCL10-MALT1 interaction (Homo sapiens, UniProt Q9UDY8)
T1 sequence (Q9UDY8 1-824): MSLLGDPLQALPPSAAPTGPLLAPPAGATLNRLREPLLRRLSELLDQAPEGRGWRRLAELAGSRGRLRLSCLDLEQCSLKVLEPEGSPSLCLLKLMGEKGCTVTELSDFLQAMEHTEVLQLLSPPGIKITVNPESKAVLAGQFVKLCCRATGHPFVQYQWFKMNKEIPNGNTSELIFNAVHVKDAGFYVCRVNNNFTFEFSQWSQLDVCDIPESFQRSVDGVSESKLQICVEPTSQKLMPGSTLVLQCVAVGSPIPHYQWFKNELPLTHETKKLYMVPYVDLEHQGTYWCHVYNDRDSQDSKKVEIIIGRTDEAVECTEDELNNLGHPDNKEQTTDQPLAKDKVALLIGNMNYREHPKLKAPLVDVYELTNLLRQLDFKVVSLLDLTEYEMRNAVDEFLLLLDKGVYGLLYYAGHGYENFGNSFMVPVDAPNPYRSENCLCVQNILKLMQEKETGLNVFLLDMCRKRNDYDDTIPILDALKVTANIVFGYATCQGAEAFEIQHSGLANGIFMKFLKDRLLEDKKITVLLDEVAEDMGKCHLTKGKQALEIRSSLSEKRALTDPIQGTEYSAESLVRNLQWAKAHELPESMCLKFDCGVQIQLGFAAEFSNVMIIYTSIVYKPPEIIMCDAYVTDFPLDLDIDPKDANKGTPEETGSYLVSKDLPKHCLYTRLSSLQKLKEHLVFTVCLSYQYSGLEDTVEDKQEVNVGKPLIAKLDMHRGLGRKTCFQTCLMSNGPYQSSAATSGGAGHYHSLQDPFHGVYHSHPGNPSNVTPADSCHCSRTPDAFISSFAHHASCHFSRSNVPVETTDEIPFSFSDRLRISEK
Assay: ELISA-based protein-protein interaction assay, BCL10-MALT1 (FIG. 2F, 2H); His-tagged recombinant human full-length Bcl10 on plate, GST-tagged recombinant human full-length MALT1
Set-up: GST-tagged recombinant human full-length MALT1 protein; GST; purchased Novus Biologicals H00010892-P01
Details: compound preincubated with 100 ng GST-MALT1 for 1 hour, 100 ng His-Bcl10 on plate, one-site binding fit, read-out: IC50 for inhibition of BCL10-MALT1 binding (ELISA)
Text: FIG. 2. In silico screening identifies small molecules targeting the predicted BCL10-binding groove within MALT1 (Ig1-2). (A) We performed a structure-guided in silico screen of 3 million compounds, using the LibDock program from Discovery Studio 3.5, in order to identify candidate molecules that could potentially fit within the identified groove in the MALT1 Ig1-2 domain. Lipinski's rule of five filters (LipinskiRo5) were applied to enrich for compounds with drug-like properties. Potential compound hits were then screened for their ability to disrupt the MALT1-BCL10 interaction using SPR analysis. 9 candidate compounds were then subjected to a second, ELISA-based MALT1-BCL10 interaction assay, identifying 2 compounds that could disrupt the interaction in both SPR and ELISA assays. M1i-124 and M1i-1255 are the two compounds identified to disrupt the BCL10-MALT1 interaction. M1i-124 became our lead compound and M1i-1255 is partially characterized in FIG. 8. (B) Structure of M1i-124. (C) Model of M1i-124 docked onto the MALT1 Ig1-2 domain groove (PDB 3K0W). […] (E) SPR analysis was performed to determine the IC50 for M1i-124 disruption of the BCL10-MALT1 interaction in a dose-response assay. (F) ELISA analysis confirmed that M1i-124 disrupts the interaction between BCL10 and MALT1 in dose dependent fashion (left). […] Circles highlight sites that differ from parent compound, M1i-124. […]

IC50: 8.45 µM
Structure (SMILES): COc1ccc(CNS(=O)(=O)c2ccc(Cc3ccc(S(=O)(=O)NCc4ccc(OC)cc4)cc3)cc2)cc1 [M1i-124d1]
